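Protocol summary: plate cells (96-well), add compound at 5 concentrations, incubate 48 h, interpolate endpoints linearly. TGI: total growth inhibition.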
Columns and labels:
Test in all cases: NCI tumour cell line growth inhibition, 48 h
HOP-92 NSCLC = test system: HOP-92 NSCLC
OVCAR-4 ovarian = test system: OVCAR-4 ovarian
DLD-1 colon = test system: DLD-1 colon
OVCAR-5 ovarian = test system: OVCAR-5 ovarian
CAKI-1 renal = test system: CAKI-1 renal
LOX IMVI melanoma = test system: LOX IMVI melanoma
HOP-18 NSCLC = test system: HOP-18 NSCLC
IGROV1 ovarian = test system: IGROV1 ovarian
KM12 colon = test system: KM12 colon
U251 CNS = test system: U251 CNS
SK-MEL-28 melanoma = test system: SK-MEL-28 melanoma
UACC-257 melanoma = test system: UACC-257 melanoma
SNB-19 CNS = test system: SNB-19 CNS
COLO 205 colon = test system: COLO 205 colon
ACHN renal = test system: ACHN renal
SF-295 CNS = test system: SF-295 CNS
RXF-631 renal = test system: RXF-631 renal
A549 NSCLC = test system: A549 NSCLC
SF-539 CNS = test system: SF-539 CNS
SK-MEL-2 melanoma = test system: SK-MEL-2 melanoma
RPMI-8226 leukemia = test system: RPMI-8226 leukemia
HOP-62 NSCLC = test system: HOP-62 NSCLC
K-562 leukemia = test system: K-562 leukemia
UACC-62 melanoma = test system: UACC-62 melanoma
UO-31 renal = test system: UO-31 renal
SK-OV-3 ovarian = test system: SK-OV-3 ovarian
A498 renal = test system: A498 renal
OVCAR-3 ovarian = test system: OVCAR-3 ovarian
NCI-H23 lung = test system: NCI-H23 lung
CCRF-CEM leukemia = test system: CCRF-CEM leukemia
NCI-H460 lung = test system: NCI-H460 lung
SR leukemia = test system: SR leukemia
SF-268 CNS = test system: SF-268 CNS
HCT-15 colon = test system: HCT-15 colon
OVCAR-8 ovarian = test system: OVCAR-8 ovarian
786-0 renal = test system: 786-0 renal
TK-10 renal = test system: TK-10 renal
NCI-H226 lung = test system: NCI-H226 lung
KM20L2 colon = test system: KM20L2 colon
DMS 114 small cell lung = test system: DMS 114 small cell lung
SK-MEL-5 melanoma = test system: SK-MEL-5 melanoma
MOLT-4 leukemia = test system: MOLT-4 leukemia
SW-620 colon = test system: SW-620 colon
M14 melanoma = test system: M14 melanoma
SN12C renal = test system: SN12C renal
NCI-H522 lung = test system: NCI-H522 lung
HT29 colon = test system: HT29 colon
SNB-78 CNS = test system: SNB-78 CNS
SNB-75 CNS = test system: SNB-75 CNS
RXF 393 renal = test system: RXF 393 renal
HL-60(TB) leukemia = test system: HL-60(TB) leukemia
XF 498 CNS = test system: XF 498 CNS
DMS 273 small cell lung = test system: DMS 273 small cell lung
HCC-2998 colon = test system: HCC-2998 colon
EKVX NSCLC = test system: EKVX NSCLC
MALME-3M melanoma = test system: MALME-3M melanoma
LXFL 529 NSCLC = test system: LXFL 529 NSCLC
M19-MEL melanoma = test system: M19-MEL melanoma
HCT-116 colon = test system: HCT-116 colon

Measured: TGI

O=C(Nc1cccs1)c1c(O)[nH]c(=S)[nH]c1=O
not listed: HT29 colon | SNB-78 CNS | SNB-75 CNS | RXF 393 renal | HL-60(TB) leukemia | XF 498 CNS | DMS 273 small cell lung | HCC-2998 colon | EKVX NSCLC | MALME-3M melanoma | LXFL 529 NSCLC | M19-MEL melanoma | HCT-116 colon
> 100 µM: all other assays above

Oc1cc(O)c(Oc2cccc(O)c2O)c(O)c1
45.9 µM: M19-MEL melanoma
31.6 µM: OVCAR-4 ovarian
38.7 µM: SK-MEL-5 melanoma
not listed: DLD-1 colon | LOX IMVI melanoma | SR leukemia | NCI-H226 lung | KM20L2 colon | HCT-116 colon
> 100 µM: all other assays above

CCc1cccc(C(C)C)c1NC(=O)C(=O)CC(=O)c1c(C)n([O-])c2ccccc2[n+]1=O
not listed: HOP-18 NSCLC | KM12 colon | UACC-257 melanoma | SF-295 CNS | OVCAR-3 ovarian | SR leukemia | HT29 colon | DMS 273 small cell lung
> 100 µM: all other assays above

— PubChem BioAssay (NCI)
